Measured values reported in patent US11572475B2, “Carbocyanines for G-quadruplex DNA stabilization and telomerase inhibition” (GEORGIA STATE UNIVERSITY RESEARCH FOUNDATION, INC., priority 2011, dated 2023).

Legend:
Type in all cases: binding
[1] = system: Duplex DNA; assay: Thermal melting UV-Vis absorbance, duplex DNA; details: for Change in Thermal Melting Points, Duplex, 1:1: ratio 1:1 (R); for Change in Thermal Melting Points, Duplex, 2:1: ratio 2:1 (R); for Change in Thermal Melting Points, Duplex, 4:1: ratio 4:1 (R); for Change in Thermal Melting Points, Duplex, 6:1: ratio 6:1 (R)
Protocol: (§1) Three DNA sequences were used: Human Telomere (HTelo), c-myc, and Duplex (Integrated DNA Technologies, San Diego, Calif.). The sequences are shown below:
(§2) The buffer used was 10 mM Tris base (Fischer Scientific, Fairlawn, N.J.), 50 mM Potassium Chloride (Fischer Scientific, Fairlawn, N.J.), with the pH adjusted to 7.5 with Hydrochloric Acid (Fischer Scientific, Fairlawn, N.J.).
(§3) DNA folding and unfolding (melting) can be measured using absorbance at a constant wavelength of 260 nm for duplex DNA and 295 nm for quadruplex DNA while the temperature is increased, for example from 25° C. to 95° C. At these wavelengths, the resulting curves decrease in absorbance for quadruplex and increase for duplex DNA. Buffer solution and presence of DNA-binding compounds alter the Tm melting temperature, or midpoint between fully folded and unfolded. An increase in melting temperature in the presence of DNA-binding compounds indicates a stabilizing effect of the compound on the DNA structure.
(§4) The selectivity of a given cyanine for quadruplex DNA can be evaluated using thermal melting. The number in parentheses next to the compound number corresponds to the compound number in Schemes 1 and 2.
(§5) Thermal melting studies were also performed on compounds T4 and T5 (Scheme 2) and ZK-14 and SP-2-36.

[2] = system: Human Telomere (HT) quadruplex DNA; assay: Thermal melting UV-Vis absorbance, quadruplex DNA; details: for Selectivity for quadruplex over duplex DNA by thermal melting: quadruplex vs duplex; for Change in Thermal Melting Points, Human Telomere (HT), 1:1: ratio 1:1 (R); for Change in Thermal Melting Points, Human Telomere (HT), 2:1: ratio 2:1 (R); for Change in Thermal Melting Points, Human Telomere (HT), 4:1: ratio 4:1 (R); for Change in Thermal Melting Points, Human Telomere (HT), 6:1: ratio 6:1 (R)
Protocol: as §1
The concentration of each DNA sample mixed with MilliQ water was determined by UV-Vis at 260 nm using their extinction coefficients. Quadruplexes from Human Telomere (Tel22) and c-myc were prepared by heating the corresponding oligonucleotides at 90° C. for 5 minutes in a 10 mM Tris/50 mM KCl buffer at pH 7.5 and then cooling to room temperature (to favor the intramolecular folding).
as §2, §3, §4, §5

[3] = system: c-Myc quadruplex DNA; assay: Fluorescence titration with c-Myc quadruplex; details: fluorescence intensity of bound ligand divided by that of free ligand
Excerpt: (§6) Atoms absorb energy and can emit it as heat (vibrational relaxation), fast light emission (fluorescence), or slow light emission (phosphorescence). Most of the cyanines described herein fluoresce in response to near-infrared wavelengths of light absorption. As the cyanines bind to DNA, π-π stacking and hydrogen bonding is altered leading to a change in fluorescence emission. This change can be measured in direct correlation to DNA binding. In some cases an approximate binding constant can be determined from measuring fluorescence enhancement as DNA is titrated into a solution of fluorescent compound. Fluorescent enhancement, or the maximum emission divided by the minimum emission of the titration (compound saturated with DNA divided by free compound) at a fixed wavelength is useful to compare DNA affinity between a family of compounds.
(§7) A UV-Vis absorbance scan is first conducted to acquire the excitation wavelength. A 5 μM solution of compound in 1 mL, of Tris/K+ buffer is scanned from 800 nm to 200 nm at a rate of 60 nm/min with a 5 nm slit width. All DNAs are diluted in Tris/K+ buffer. The human telomere and c-Myc DNA are annealed into a quadruplex motif by heating at 95° C. in the presence of potassium ions in a hot water bath for approximately five minutes, then allowing the solution to slowly come to room temperature. In a fluorescence cell, an emission scan of 1 μM of compound in 1 mL of Tris Buffer is taken (Varian Cary Eclipse, Walnut Creek, Calif.) with appropriate parameters based on the excitation wavelength, an excitation slit width of 5 nm, and an emission slit width of 5 nm. Then 0.05 μM of DNA is titrated into the solution and scanned under the same conditions after each addition. The solution is titrated to saturation, at which the change in fluorescence intensity is nearly zero.
(§8) Due to the highly stabilized parallel quadruplex structure of c-Myc, thermal melting could not be considered for this sequence. Thus, fluorescence can be used to measure binding affinity towards the two quadruplex structures. […] Fluorescence enhancement, or the fluorescence intensity of the bound ligand divided by that of the free ligand, was considered in evaluating binding.

[4] = system: Human Telomere (HT) quadruplex DNA; assay: Fluorescence titration with human telomere quadruplex; details: fluorescence intensity of bound ligand divided by that of free ligand
Excerpt: as §6, §7, §8

Structure (SMILES): CC1(C)C(/C=C/C(=C/C=C2\N(CCC[N+](C)(C)C)c3ccccc3C2(C)C)c2ccncc2)=[N+](CCC[N+](C)(C)C)c2ccccc21 [SP-2-36]
- Thermal Melting (Δ° C.), Duplex DNA, 1:1 ratio [1]: 0.2 +/− 0.3 °C
- Thermal Melting (Δ° C.), Duplex DNA, 1:2 ratio [1]: 0.5 +/− 0.5 °C
- Thermal Melting (Δ° C.), Duplex DNA, 1:4 ratio [1]: 0.5 +/− 0.3 °C
- Thermal Melting (Δ° C.), Duplex DNA, 1:6 ratio [1]: 0.6 +/− 0.3 °C
- Thermal Melting (Δ° C.), Quadruplex DNA, 1:1 ratio [2]: 0.9 +/− 0.1 °C
- Thermal Melting (Δ° C.), Quadruplex DNA, 1:2 ratio [2]: 1.4 +/− 0.2 °C
- Thermal Melting (Δ° C.), Quadruplex DNA, 1:4 ratio [2]: 3.5 +/− 0.8 °C
- Thermal Melting (Δ° C.), Quadruplex DNA, 1:6 ratio [2]: 4.4 +/− 0.5 °C

Structure (SMILES): CC1(C)C(/C=C/C(Cl)=C/C=C2\N(CCC[N+](C)(C)C)c3ccccc3C2(C)C)=[N+](CCC[N+](C)(C)C)c2ccccc21.[Br-].[Br-].[Br-] [A-20 (42)]
- Fluorescence Enhancement, c-Myc [3]: 3.58
- Fluorescence Enhancement, HT [4]: 1.74
- Change in Thermal Melting Points, Duplex, 1:1 [1]: 0
- Change in Thermal Melting Points, Duplex, 2:1 [1]: 0.9
- Change in Thermal Melting Points, Duplex, 4:1 [1]: 0.9
- Change in Thermal Melting Points, Duplex, 6:1 [1]: 2.8
- Selectivity for quadruplex over duplex DNA by thermal melting [2]: selectively bind to quadruplex DNA with little or no binding to duplex DNA
- Change in Thermal Melting Points, Human Telomere (HT), 1:1 [2]: 2.6
- Change in Thermal Melting Points, Human Telomere (HT), 2:1 [2]: 6.0
- Change in Thermal Melting Points, Human Telomere (HT), 4:1 [2]: 12.2
- Change in Thermal Melting Points, Human Telomere (HT), 6:1 [2]: 13.2

Structure (SMILES): CC1(C)C(=CC=CC2=[N+](CCC[N+](C)(C)C)c3ccccc3C2(C)C)N(CCC[N+](C)(C)C)c2ccccc21.[Br-].[Br-].[Br-] [MH4 (26)]
- Fluorescence Enhancement, c-Myc [3]: 7.74
- Fluorescence Enhancement, HT [4]: 1.68
- Change in Thermal Melting Points, Duplex, 1:1 [1]: 0
- Change in Thermal Melting Points, Duplex, 2:1 [1]: 0.9
- Change in Thermal Melting Points, Duplex, 4:1 [1]: −0.2
- Change in Thermal Melting Points, Duplex, 6:1 [1]: 1.8
- Selectivity for quadruplex over duplex DNA by thermal melting [2]: selectively bind to quadruplex DNA with little or no binding to duplex DNA
- Change in Thermal Melting Points, Human Telomere (HT), 1:1 [2]: 1.6
- Change in Thermal Melting Points, Human Telomere (HT), 2:1 [2]: 4.1
- Change in Thermal Melting Points, Human Telomere (HT), 4:1 [2]: 8.7
- Change in Thermal Melting Points, Human Telomere (HT), 6:1 [2]: 13.7

Structure (SMILES): CC1(C)C(/C=C/C(Br)=C/C=C2\N(CCC[N+](C)(C)C)c3ccc(F)cc3C2(C)C)=[N+](CCC[N+](C)(C)C)c2ccc(F)cc21 [T5]
- Thermal Melting (Δ° C.), Duplex DNA, 1:1 ratio [1]: 0.1 +/− 0.2 °C
- Thermal Melting (Δ° C.), Duplex DNA, 1:2 ratio [1]: 0.8 +/− 0.4 °C
- Thermal Melting (Δ° C.), Duplex DNA, 1:4 ratio [1]: 0.8 +/− 0.4 °C
- Thermal Melting (Δ° C.), Duplex DNA, 1:6 ratio [1]: 0.9 +/− 0.4 °C
- Thermal Melting (Δ° C.), Quadruplex DNA, 1:1 ratio [2]: 2.7 +/− 0.3 °C
- Thermal Melting (Δ° C.), Quadruplex DNA, 1:2 ratio [2]: 6.2 +/− 0.4 °C
- Thermal Melting (Δ° C.), Quadruplex DNA, 1:4 ratio [2]: 13.3 +/− 0.4 °C
- Thermal Melting (Δ° C.), Quadruplex DNA, 1:6 ratio [2]: 16.9 +/− 0.6 °C
- Selectivity for quadruplex over duplex DNA by thermal melting [2]: bind quite strongly to the quadruplex with excellent selectivity

Structure (SMILES): CC1(C)C(=CC=CC2=[N+](CCC[N+](C)(C)C)c3ccc(S(=O)(=O)[O-])cc3C2(C)C)N(CCC[N+](C)(C)C)c2ccc(S(=O)(=O)[O-])cc21.[Br-] [MH2 (31)]
- Change in Thermal Melting Points, Human Telomere (HT), 1:1 [2]: 1.5
- Change in Thermal Melting Points, Human Telomere (HT), 2:1 [2]: 1.1
- Change in Thermal Melting Points, Human Telomere (HT), 4:1 [2]: 0.6
- Change in Thermal Melting Points, Human Telomere (HT), 6:1 [2]: 1.2

Structure (SMILES): CC1(C)C(/C=C/C(Cl)=C/C=C2\N(CCC[N+](C)(C)C)c3ccc(F)cc3C2(C)C)=[N+](CCC[N+](C)(C)C)c2ccc(F)cc21 [T4]
- Thermal Melting (Δ° C.), Duplex DNA, 1:1 ratio [1]: 0.4 +/− 0.4 °C
- Thermal Melting (Δ° C.), Duplex DNA, 1:2 ratio [1]: 0.5 +/− 0.4 °C
- Thermal Melting (Δ° C.), Duplex DNA, 1:4 ratio [1]: 0.9 +/− 0.5 °C
- Thermal Melting (Δ° C.), Duplex DNA, 1:6 ratio [1]: 1.2 +/− 0.7 °C
- Thermal Melting (Δ° C.), Quadruplex DNA, 1:1 ratio [2]: 1.6 +/− 0.2 °C
- Thermal Melting (Δ° C.), Quadruplex DNA, 1:2 ratio [2]: 3.3 +/− 0.4 °C
- Thermal Melting (Δ° C.), Quadruplex DNA, 1:4 ratio [2]: 8.0 +/− 0.7 °C
- Thermal Melting (Δ° C.), Quadruplex DNA, 1:6 ratio [2]: 10.7 +/− 0.7 °C

Structure (SMILES): CC1(C)C(=CC=CC2=[N+](CCC[N+](C)(C)C)c3ccc(Cl)cc3C2(C)C)N(CCC[N+](C)(C)C)c2ccc(Cl)cc21.[Br-].[Br-].[Br-] [A-138 (17)]
- Fluorescence Enhancement, c-Myc [3]: 5.4
- Fluorescence Enhancement, HT [4]: 2.7
- Change in Thermal Melting Points, Duplex, 1:1 [1]: 0.0
- Change in Thermal Melting Points, Duplex, 2:1 [1]: 0.0
- Change in Thermal Melting Points, Duplex, 4:1 [1]: −1.0
- Selectivity for quadruplex over duplex DNA by thermal melting [2]: selectively bind to quadruplex DNA with little or no binding to duplex DNA
- Change in Thermal Melting Points, Human Telomere (HT), 1:1 [2]: 3.0
- Change in Thermal Melting Points, Human Telomere (HT), 2:1 [2]: 7.0
- Change in Thermal Melting Points, Human Telomere (HT), 4:1 [2]: 14.6

Structure (SMILES): CCCCn1/c(=C/C=C/C2=[N+](CCC[N+](C)(C)C)c3ccccc3C2(C)C)c2cccc3cccc1c32 [ZK-14]
- Thermal Melting (Δ° C.), Duplex DNA, 1:1 ratio [1]: 0.6 +/− 0.1 °C
- Thermal Melting (Δ° C.), Duplex DNA, 1:2 ratio [1]: 0.8 +/− 0.3 °C
- Thermal Melting (Δ° C.), Duplex DNA, 1:4 ratio [1]: 2.7 +/− 0.1 °C
- Thermal Melting (Δ° C.), Duplex DNA, 1:6 ratio [1]: 2.8 +/− 0.3 °C
- Thermal Melting (Δ° C.), Quadruplex DNA, 1:1 ratio [2]: 1.9 +/− 0.3 °C
- Thermal Melting (Δ° C.), Quadruplex DNA, 1:2 ratio [2]: 7.7 +/− 1.1 °C
- Thermal Melting (Δ° C.), Quadruplex DNA, 1:4 ratio [2]: 20.4 +/− 1.0 °C
- Thermal Melting (Δ° C.), Quadruplex DNA, 1:6 ratio [2]: 26.0 +/− 0.5 °C
- Selectivity for quadruplex over duplex DNA by thermal melting [2]: bind quite strongly to the quadruplex with excellent selectivity
